Measured values taken from patent US7563793B2, “Pyrrolo[1,2-a]quinoxalin-5-(4H)-yl)sulfonyls and carbonyls and their use as estrogenic agents” (Wyeth, priority 2004, dated 2009).

Key:
creatine kinase = experiment: Creatine kinase assay in Ad5-wt-ER infected HAECT-1 cells; format: cell-based, human; conditions: Homo sapiens; for EC50: HAECT1, CK stimulation, N/O = activity not observed at concentrations tested, read-out: CK IC50; for Emax: HAECT1, relative to maximal stimulation observed with E2, read-out: CK Efficacy
How it was run: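 Ad5-wt-hERα-infected HAECT-1 cells, with uninfected cells as controls; after infection, cells were washed, incubated overnight in EBM-BSA, then held at 34 °C for 1 h. Luciferase was read by luminometry on cell lysates. IC50/EC50 came from four-parameter logistic fits of mean IL-6, luciferase or CK values versus log10 compound concentration.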

ER/Nf-kB = experiment: ER/NF-κB luciferase reporter assay in Ad5-wt-ER infected HAECT-1 cells (IL-1β induced); format: cell-based, human; conditions: for IC50: Homo sapiens, HAECT1; for ER/Nf-kB Efficacy: relative to maximal inhibition observed with E2
Description: (§1) After four hours, cells were washed with EBM-BSA and incubated overnight in the same medium. […] After two hours, cells were washed and incubated at 34° C. for 1 hour. […] Control (no ER infection) cells were processed as above without Ad5-wt-hERα virus infection. […] Cells were subsequently washed with 300 μl of Dulbecco's phosphate buffered saline and lysed in 50 μl of Cell Culture Lysis Reagent (Promega). Luciferase was determined on a Wallac Victor^2 Luminometer (Gaithersburg, Md.) using 10 μl of lysate and mixing with 100 lμof Promega Luciferase Assay reagent. […] For IC50 and EC50 calculations, mean IL-6, luciferase or CK values versus log10 of the compound concentration were fitted to a four parameter logistic equation. The IC50/EC50 value, ‘Hill slope’, upper and lower limits of the curve were iteratively estimated.

IL-6 = IL-6 assay (ELISA) in Ad5-wt-ER infected HAECT-1 cells (IL-1β induced); format: cell-based, human; conditions: Homo sapiens; for IC50: HAECT1; for Emax: HAECT1, relative to maximal inhibition observed with E2, read-out: IL-6 Efficacy
Description: as §1

EC50 (creatine kinase) [nM]	IC50 (ER/Nf-kB) [nM]	melting point [°C]	IC50 (IL-6) [nM]	Structure (SMILES)	Emax (creatine kinase) [%]	ER/Nf-kB Efficacy (ER/Nf-kB) [%]	Emax (IL-6) [%]
830	332	208 to 210	–	CC[C@H]1c2ccc(C#N)n2-c2cc(F)c(F)cc2N1S(=O)(=O)c1ccc(O)c(C)c1 [Example 11B, (S)-4-ethyl-7,8-difluoro-5-[(4-hydroxy-3-methylphenyl)sulfonyl]-4,5-dihydropyrrolo[1,2-a]quinoxaline-1-carbonitrile]	96	96	–
–	1820	201 to 203	–	CCC1c2ccc(C#N)n2-c2cc(F)c(F)cc2N1S(=O)(=O)c1ccc(O)c(C)c1 (stereo not drawn) [Example 12, 4-ethyl-7,8-difluoro-5-[(4-hydroxy-3-methylphenyl)sulfonyl]-4,5-dihydropyrrolo[1,2-a]quinoxaline-1-carbonitrile]	–	91	–
–	1320	192 to 194	–	CCC1c2ccc(C#N)n2-c2ccc(F)cc2N1S(=O)(=O)c1ccc(O)c(C)c1 (stereo not drawn) [Example 33, 4-ethyl-7-fluoro-5-[(4-hydroxy-3-methylphenyl)sulfonyl]-4,5-dihydropyrrolo[1,2-a]quinoxaline-1-carbonitrile]	–	208	–
107	962	169 to 171	–	CCC1c2ccc(C#N)n2-c2ccc(F)cc2N1S(=O)(=O)c1ccc(O)cc1 (stereo not drawn) [Example 35, 4-ethyl-7-fluoro-5-[(4-hydroxyphenyl)sulfonyl]-4,5-dihydropyrrolo[1,2-a]quinoxaline-1-carbonitrile]	19	72	–
3000	9700	194 to 196	–	CCC1c2ccc(C#N)n2-c2ccc(C(F)(F)F)cc2N1S(=O)(=O)c1ccc(O)c(C)c1 (stereo not drawn) [Example 59, 4-ethyl-5-[(4-hydroxy-3-methylphenyl)sulfonyl]-7-(trifluoromethyl)-4,5-dihydropyrrolo[1,2-a]quinoxaline-1-carbonitrile]	-13	75	–
–	157	194 to 196	–	CCC1c2cccn2-c2cc(O)c(F)cc2N1S(=O)(=O)c1ccc(O)c(C)c1 (stereo not drawn) [Example 74, 4-ethyl-7-fluoro-5-[(4-hydroxy-3-methylphenyl)sulfonyl]-4,5-dihydropyrrolo[1,2-a]quinoxalin-8-ol]	–	75	–
212	11	187 to 189	–	CC[C@H]1c2cccn2-c2ccc(Br)cc2N1S(=O)(=O)c1ccc(O)cc1 [Example 77, 4-{[(4S)-7-bromo-4-ethylpyrrolo[1,2-a]quinoxalin-5(4H)-yl]sulfonyl}phenol]	39	186	–
34	–	204 to 207	101	CC[C@H]1c2ccc(C#N)n2-c2cc(F)c(F)cc2N1S(=O)(=O)c1ccc(OS(N)(=O)=O)c(C)c1 [Example 103, 4-{[(4S)-1-cyano-4-ethyl-7,8-difluoropyrrolo[1,2-a]quinoxalin-5(4H)-yl]sulfonyl}-2-methylphenyl sulfamate]	-18	–	93
20	–	165 to 167	3	CCC1c2cccn2-c2ccc(F)cc2N1C(=O)c1ccc(O)cc1 (stereo not drawn) [Example 118, 4-[(4-ethyl-7-fluoropyrrolo[1,2-a]quinoxalin-5(4H)-yl)carbonyl]phenol]	32	–	95
